Laboratory results reported in patent US20240277682A1, “PHARMACEUTICAL HYDRONIDONE FORMULATIONS FOR DISEASES” (Gyre Therapeutics, Inc., priority 2021, published 2024).

Legend:
[1] = In vitro drug-drug interaction with Entecavir and Lamivudine in human liver microsomes
Experimental: Entecavir and Lamivudine, were used concomitantly with Hydronidone, or individually, in the in vitro drug interaction experiments, in respective concentrations of each of 1.5 mM.

[2] = Safety, tolerability and PK of single doses, 7-day and 4-week multiple oral doses (Example 10); assay type: in vivo, human
Experimental: This was a randomized, open-label, study of safety, tolerability and PK of single doses, 7-day, and 4-week multiple oral doses of Hydronidone in healthy Chinese subjects.
This study was conducted in three parts. In the first part single escalating doses of Hydronidone of 15 mg, 30 mg, 60 mg, 90 mg, and 120 mg/day were administered to six (6), eight (8), eight (8), six (6), six (6) healthy subjects, respectively, as per the Fibonacci Escalating Method (modified Fibonacci method). […] As no adverse experiences were reported at any dose level, the two highest single dose levels of 90 mg and 120 mg of Hydronidone were selected for the second part of the study, and were administered TID to 6 subjects each, for seven consecutive days. Thus, total daily doses of Hydronidone in these two dose groups were 270 mg and 360 mg, respectively. All subjects completed the seven-day dosing regimen without premature discontinuation. No clinically-significant abnormal changes in vital signs, ECG and laboratory test results of each group of subjects were found. In the third part of the study, six (6) subjects were given oral Hydronidone at a daily dose of 60 mg TID (total daily dose of 180 mg) for four (4) consecutive weeks. All subjects completed the seven-day dosing regimen without premature discontinuation. No clinically-significant abnormal changes in vital signs, ECG and laboratory test results of each group of subjects were found.
PK assessments were performed in each part of the study. In the single part of the study, the PK parameters also included food effect assessment.

[3] = In vitro Phase 2 metabolism in human liver microsomes; assay type: in vitro ADME; settings: 30 minutes incubation
liver fibrosis [4] = experiment: HSA-induced and DMN-induced liver fibrosis in rats; assay type: in vivo
Experimental: (§1) Hydronidone anti-fibrotic effects were evaluated in several animal models of liver fibrosis, such as human serum albumin (HSA)-induced liver fibrosis in rats, dimethyl nitrosamine (DMN)-induced liver fibrosis in rats, and carbon tetrachloride (CCl4)-induced liver fibrosis in mice. […] In the CCl4-induced liver fibrosis in mice, Hydronidone effects were the most prominent at the doses of 3-10 mg/kg/day, although some effects were also shown at the dose of 1 mg/kg/day. In some embodiments, this dose range corresponds to human equivalent dose (HED) range of 15-50 mg. […] The HED of these rat doses are in the range of 100-2,400 mg which were all tested as safe in Phase I clinical trials of Hydronidone, with the 100 mg dose being […] the maximum daily dose of 360 mg (administered as 120 mg TID) administered to the subjects with liver fibrosis due to chronic Hepatitis B in the ongoing Phase II clinical study of efficacy and safety of Hydronidone in China.

liver fibrosis [5] = experiment: CCl4-induced liver fibrosis in mice; assay type: in vivo
Experimental: as §1

human CYP 1A2 = target: T1, human CYP 1A2 (Homo sapiens, UniProt P05177); experiment: biochemical
T1 sequence (P05177 1-516): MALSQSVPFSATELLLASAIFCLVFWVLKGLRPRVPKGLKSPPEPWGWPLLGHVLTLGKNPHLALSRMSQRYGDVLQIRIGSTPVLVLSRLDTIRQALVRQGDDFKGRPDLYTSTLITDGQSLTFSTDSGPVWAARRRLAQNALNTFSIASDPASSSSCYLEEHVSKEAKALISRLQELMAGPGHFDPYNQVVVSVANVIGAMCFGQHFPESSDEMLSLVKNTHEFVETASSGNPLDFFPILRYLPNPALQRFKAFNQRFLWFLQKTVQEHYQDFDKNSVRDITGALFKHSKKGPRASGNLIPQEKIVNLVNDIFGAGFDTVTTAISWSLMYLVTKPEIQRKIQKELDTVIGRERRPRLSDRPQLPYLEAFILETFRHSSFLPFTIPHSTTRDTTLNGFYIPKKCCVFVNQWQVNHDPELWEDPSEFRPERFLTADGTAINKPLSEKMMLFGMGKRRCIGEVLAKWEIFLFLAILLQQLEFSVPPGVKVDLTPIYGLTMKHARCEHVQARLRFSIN
Experimental: In vitro study investigated whether Hydronidone is inhibitor for human cytochrome P450 (CYP450). The effects of different Hydronidone concentrations were determined by the fluorescence intensity of metabolic substrates of CYP1A2, 2C9, 2C19, 2 D6 and 3A4, produced under the effect of the relevant enzyme. The respective IC50 value were calculated in the event of observed inhibition with hydronidone.

[6] = test system: CCl4 and western diet (WD) induced NASH; experiment: (CCl4+HFD) induced NASH model in mice; assay type: in vivo
Description: The total NASH score was lower at dosage of 15 milligram per kilogram (mpk) and 50 mpk.

[7] = Crossover study of food effect on safety, tolerability and PK of a single oral dose (Example 8); assay type: in vivo, human
Experimental: This was a randomized, open-label, 2-period, crossover PK study of effects of food on safety, tolerability, and PK of single oral doses of Hydronidone in healthy Chinese subjects. The PK parameters of the M3 and M4 metabolites of Hydronidone, in presence or absence of food were also determined.
Twelve healthy Chinese subjects were enrolled, dosed and in this inpatient study. They were randomly assigned in two groups/periods to receive a single oral 600 mg (3×200 mg) dose of Hydronidone either under fasted, or fed (high fat) conditions. Within each treatment period, PK blood samples were collected at: 0 (pre-dose), 10 min, 20 min, 30 min, 40 min, 1 hr, 1.5 hr, 2 hr, 3 hr, 4 hr, 5 hr, 6 hr, 8 hr, 10 hr, 12 hr, 16 hr, and 24 hr, and 48 hr post-dose. The wash-out period between the two periods in this trial was 48 hours.

[8] = single oral 600 mg dose of Hydronidone, fed vs fasted

With `Cc1ccc(=O)n(-c2ccc(O)cc2)c1` [Hydronidone, N-(4-hydroxyphenyl)-5-Methyl-2-pyridone] the “role of liver metabolism as metabolic pathway” value [1] was “the liver metabolism is not the main Hydronidone metabolic pathway”, the “maximum tolerated single oral dose” value ([2]; healthy subjects) was 120 mg and the Tmax ([2]; human, in vivo, po, 120 mg) was 36 ± 29.4 min. For the same compound, the QTc interval ([2]; in vivo) was “no abnormal prolongation of the QTc interval”, the “subjects with increase in T-BIL and D-BIL post-dose values” ([2]; in vivo) was “Three” and the “generation of the M4 metabolite” value [3] was “detected”. The “anti-fibrotic effect (level of fibrosis, hydroxyproline, ALT, AST)” value (liver fibrosis [4]; HSA- and DMN-induced liver fibrosis in rats) was “potent anti-fibrotic effect”, the “anti-fibrotic effect compared with silymarin extract (positive control)” value (liver fibrosis [4]; rats) was “comparable or more potent than silymarin extract” and the “dose range in which anti-fibrotic effects were shown” value (liver fibrosis [4]; rats, depending on the model) was 10 to 250 mg/kg/day. For the same compound, the “anti-fibrotic effect (level of fibrosis, hydroxyproline, ALT, AST)” value (liver fibrosis [5]) was “potent anti-fibrotic effect”, the “dose at which some effects were also shown” value (liver fibrosis [5]) was 1 mg/kg/day and the “doses at which effects were the most prominent” value (liver fibrosis [5]) was 3 to 10 mg/kg/day. The IC50 (human CYP 1A2) was greater than 100 µM, the “total NASH score” value ([6]; 15 milligram per kilogram (mpk)) was “lower” and the “fibrosis and cell ballooning (H&E staining)” value ([6]; 15 mpk) was “significantly inhibited”. For the same compound, the “fibrosis and cell ballooning (H&E staining)” value ([6]; 50 mpk) was “significantly inhibited”, the “total NASH score” value ([6]; 50 mpk) was “lower” and the “potency compared with pirfenidone” value ([6]; NASH model in mice) was “more potent than pirfenidone”. The “effect on CCl4 and western diet (WD) induced NASH (H&E staining)” value ([6]; mice) was “protective effect”, the “effect of food (high-fat meal) on Cmax” value [7, 8] was “decreasing their Cmax values” and the “effect of food (high-fat meal) on rate of absorption” value [7, 8] was “delayed the rate of absorption”. The safety and tolerability ([7]; single oral 600 mg dose, fed or fasted) was “safe and well tolerated, without SAEs or AEs reported”.
